In US11040031B2, “Pyrazole derivatives as MALT1 inhibitors” (Janssen Pharmaceutica NV, priority 2018, dated 2021) one finds IC50 data, which are given here for 15 compounds.

The target of assay [1] is T1, full-length MALT1 protein (Strep-MALT1(1-824)-His) (Homo sapiens, UniProt Q9UDY8).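 Further: fluorogenic LRSR-AMC substrate cleavage by MALT1, 50 min compound preincubation then 4 h reaction at RT, 11-point dilution from 30 µM, scaled between enzyme-free and untreated enzyme controls.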
T1 sequence (Q9UDY8 1-824): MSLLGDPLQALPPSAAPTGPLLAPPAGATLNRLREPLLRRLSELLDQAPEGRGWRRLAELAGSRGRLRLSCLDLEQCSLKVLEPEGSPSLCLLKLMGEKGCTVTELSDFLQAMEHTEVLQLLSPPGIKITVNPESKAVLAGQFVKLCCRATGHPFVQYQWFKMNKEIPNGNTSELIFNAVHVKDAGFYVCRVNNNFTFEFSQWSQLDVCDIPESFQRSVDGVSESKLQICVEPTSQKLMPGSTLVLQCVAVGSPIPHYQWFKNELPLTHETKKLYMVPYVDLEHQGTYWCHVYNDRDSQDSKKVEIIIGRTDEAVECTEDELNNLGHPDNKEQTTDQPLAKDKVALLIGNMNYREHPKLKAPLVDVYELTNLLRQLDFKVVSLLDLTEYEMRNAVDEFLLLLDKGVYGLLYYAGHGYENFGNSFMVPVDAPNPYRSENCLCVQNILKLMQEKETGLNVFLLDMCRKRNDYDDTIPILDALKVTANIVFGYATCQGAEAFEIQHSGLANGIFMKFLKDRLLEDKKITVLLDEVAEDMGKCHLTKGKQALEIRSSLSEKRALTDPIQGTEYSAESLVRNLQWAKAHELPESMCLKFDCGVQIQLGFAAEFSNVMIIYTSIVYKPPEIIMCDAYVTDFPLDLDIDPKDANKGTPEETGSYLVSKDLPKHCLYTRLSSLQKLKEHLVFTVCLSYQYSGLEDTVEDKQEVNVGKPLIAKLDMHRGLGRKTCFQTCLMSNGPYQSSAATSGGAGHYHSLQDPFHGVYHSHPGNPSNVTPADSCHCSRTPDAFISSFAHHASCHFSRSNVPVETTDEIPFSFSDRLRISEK
Briefly: biochemical.

Assay [2] deals with OCI-Ly3 ABC-DLBCL cell line. The assay is described as follows: 4-day proliferation assay OCI-Ly3. In kind it is cell-based. The following applies: Homo sapiens, read-out: Anti-proliferation: OCI-LY-3 IC50. As for the experimental part:
To assess anti-proliferative effects, MALT1 inhibitor test compounds were tested in 4-day proliferation assays using three different DLBCL cell lines.
Cells should be kept between 0.5-2.5 million cells per mL during culturing and cells should be supplemented every 2-3 days with fresh 50 μM beta-mercaptoenthanol. No beta-mercaptoethanol is used during the proliferation assay. OCI-Ly7 cells were propagated in IMDM (ThermoFisher) supplemented with 10% fetal bovine serum (HyClone), 2 mM L-glutamine (Sigma Aldrich) and 50 μg/mL Gentamycin. Cell passage numbers should not exceed 30.
10,000 TMD8, 10,000 OCI-Ly3 or 2,000 OCI-Ly7 cells were seeded in 100 μL media per well and incubated for 4 days at 37° C. and 5% CO2. Cell plating numbers were chosen based on growth curves to ensure linear cell growth. After 4 days of incubation 50 μl CellTiterGLO reagent (Promega) were added to each well and luminescence was measured on the Envision after 10 min of incubation at room temperature.

Assay [3] concerns Secretion of IL6 by TMD8 ABC-DLBCL cells. Briefly: Human IL6 Mesoscale assay (TMD-8). In kind it is cell-based. The following applies: read-out: Human IL6 Mesoscale assay (TMD-8). As for the experimental part: (§1) NFKB signaling regulates the secretion of multiple cytokines, including IL6 and IL10. Secretion of the cytokines IL6 and IL10 by TMD8 or OCI-LY3 ABC-DLBCL cells was measured using a mesoscale assay.
(§2) Cell passage number should not exceed 30. Cells should be kept between 0.5-2.5 million cells per mL during culturing and cells should be supplemented every 2-3 days with fresh 50 µM beta-mercaptoenthanol. No beta-mercaptoethanol was used during the mesoscale assay.
(§3) DMSO control wells were used to determine the maximum signal (High Control (HC)). […] Compounds and cells were incubated for 24 h at 37° C. and 5% CO2 (assay volume is 150 μL). After 24 h of incubation 50 μL of the supernatant was transferred to a MSD plate (V-Plex Proinflammation Panel 1 (human) kit, Mesoscale (MSD)) and incubated for 2 h with vigorous shaking (600 rpm) at room temperature. Following incubation, plates were washed 3× with PBS+0.05% Tween-20 and 25 μL detection antibody solution (IL6 & IL10 antibodies in diluent 3 (MSD)) was added per well followed by 2 h of incubation with vigorous shaking (600 rpm) at room temperature. After 3× washes with PBS+0.05% Tween-20, plates were incubated with 150 μL 2× Read Buffer T and read on SECTOR imager.

Assay [4] relates to Secretion of IL10 by TMD8 ABC-DLBCL cells. The assay is described as follows: Human IL10 Mesoscale assay (TMD-8). In kind it is cell-based. The following applies: read-out: Human IL10 Mesoscale assay (TMD-8). As for the experimental part: as §1, §2, §3
For assay [5], the system named is Secretion of IL10 by OCI-LY3 ABC-DLBCL cells. Briefly: Human IL10 Mesoscale assay (OCI-LY3). The assay is classed as cell-based. The conditions noted are these: OCI-LY3 cells, 24 h incubation, supernatant, MSD V-Plex, read-out: Human IL10 Mesoscale assay (OCI-LY3). In a few lines:
(§4)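 TMD8 or OCI-LY3 ABC-DLBCL cells incubated with compound 24 h at 37° C without beta-mercaptoethanol. Secreted IL6 and IL10 in supernatant quantified by MSD electrochemiluminescence immunoassay; DMSO wells define maximum signal.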

For assay [6], the system named is Secretion of IL6 by OCI-LY3 ABC-DLBCL cells. The assay is described as follows: Human IL6 Mesoscale assay (OCI-LY3). The conditions noted are these: OCI-LY3 cells, 24 h incubation, supernatant, MSD V-Plex, read-out: Human IL6 Mesoscale assay (OCI-LY3). The assay is classed as cell-based. The essentials: as §4
The mark [7] stands for this setting: 96 h, 10,000 OCI-Ly3 cells per well, 4 days, CellTiterGLO.
Where [8] appears, read: TMD8 cells, 24 h incubation, supernatant, MSD V-Plex.

Structures are written as SMILES. Read-outs that look alike come from different tables or passages of the source.

For the compound `Cc1cc(Cl)ccc1-n1ncc(C(=O)Nc2cnc(-n3nccn3)c(Cl)c2)c1C(F)(F)F` [Cpd 2, 1-(4-Chloro-2-methylphenyl)-N-(5-chloro-6-(2H-1,2,3-triazol-2-yl)pyridin-3-yl)-5-(trifluoromethyl)-1H-pyrazole-4-carboxamide], the IC50 came out at 132 nM in assay [1], 741 nM in assay [2] (setting [7]), 148 nM in assay [3] (setting [8]) and 65 nM in assay [4] (setting [8]).
For `O=C(Nc1cnc(-n2nccn2)c(Cl)c1)c1cnn(-c2ccncc2)c1C(F)(F)F` [Cpd 4, N-(5-Chloro-6-(2H-1,2,3-triazol-2-yl)pyridin-3-yl)-1-(pyridin-4-yl)-5-(trifluoromethyl)-1H-pyrazole-4-carboxamide], the IC50 is 282 nM in assay [1], 1050 nM in assay [2] (setting [7]) and 933 nM in assay [4] (setting [8]).
For `O=C(Nc1cnc(-n2nccn2)c(Cl)c1)c1cnn(-c2ccccc2)c1C(F)(F)F` [Cpd 5, N-(5-Chloro-6-(2H-1,2,3-triazol-2-yl)pyridin-3-yl)-1-phenyl-5-(trifluoromethyl)-1H-pyrazole-4-carboxamide], the IC50 in assay [1] stood at 295 nM; in assay [2] (setting [7]), 380 nM; in assay [3] (setting [8]), 263 nM; in assay [4] (setting [8]), 741 nM.
`O=C(Nc1cnc(-n2nccn2)c(Cl)c1)c1cnn(-c2ccc(F)cn2)c1C(F)(F)F` [Cpd 7, N-(5-Chloro-6-(2H-1,2,3-triazol-2-yl)pyridin-3-yl)-1-(5-fluoropyridin-2-yl)-5-(trifluoromethyl)-1H-pyrazole-4-carboxamide]: the IC50 in assay [1] is 912 nM; in assay [2] (OCI-Ly3, 96 h), 1550 nM; in assay [3] (TMD8, 24 h) it was 407 nM; in assay [4] (TMD8, 24 h) it was 417 nM.
As for `COc1ncccc1-n1ncc(C(=O)Nc2cnc(-n3nccn3)c(Cl)c2)c1C(F)(F)F` [Cpd 14, N-(5-Chloro-6-(2H-1,2,3-triazol-2-yl)pyridin-3-yl)-1-(2-methoxypyridin-3-yl)-5-(trifluoromethyl)-1H-pyrazole-4-carboxamide], the IC50 in assay [1] was determined as 148 nM; in assay [2] (setting [7]), 2140 nM; in assay [3] (setting [8]), 316 nM; in assay [4] (setting [8]), 282 nM.
In the case of `O=C(Nc1cnc(-n2nccn2)c(Cl)c1)c1cnn(-c2ccc(F)cc2)c1C(F)(F)F` [Cpd 18, N-(5-chloro-6-(2H-1,2,3-triazol-2-yl)pyridin-3-yl)-1-(4-fluorophenyl)-5-(trifluoromethyl)-1H-pyrazole-4-carboxamide], the IC50 is 151 nM in assay [1]; 6460 nM in assay [2] (OCI-Ly3, 96 h); 115 nM in assay [4] (TMD8, 24 h).
On to `N#Cc1ccc(-n2ncc(C(=O)Nc3cnc(-n4nccn4)c(Cl)c3)c2C(F)(F)F)cc1` [Cpd 19, N-(5-chloro-6-(2H-1,2,3-triazol-2-yl)pyridin-3-yl)-1-(4-cyanophenyl)-5-(trifluoromethyl)-1H-pyrazole-4-carboxamide], for which the IC50 in assay [1] stood at 132 nM; in assay [2] (setting [7]), 7940 nM; in assay [4] (setting [8]), 117 nM.
`O=C(Nc1cnc(-n2nccn2)c(Cl)c1)c1cnn(-c2cccc(F)c2)c1C(F)(F)F` [Cpd 20, N-(5-chloro-6-(2H-1,2,3-triazol-2-yl)pyridin-3-yl)-1-(3-fluorophenyl)-5-(trifluoromethyl)-1H-pyrazole-4-carboxamide]: the IC50 in assay [1] is 562 nM; in assay [2] (OCI-Ly3, 96 h), 12600 nM; in assay [4] (TMD8, 24 h) it was 1000 nM.
With `N#Cc1cccc(-n2ncc(C(=O)Nc3cnc(-n4nccn4)c(Cl)c3)c2C(F)(F)F)c1` [Cpd 21, N-(5-chloro-6-(2H-1,2,3-triazol-2-yl)pyridin-3-yl)-1-(3-cyanophenyl)-5-(trifluoromethyl)-1H-pyrazole-4-carboxamide], the IC50 worked out at 1120 nM in assay [1], 741 nM in assay [2] (setting [7]), 912 nM in assay [3] (setting [8]) and 1260 nM in assay [4] (setting [8]).
As for `Cc1ccnc(-n2ncc(C(=O)Nc3cnc(-n4nccn4)c(Cl)c3)c2C(F)(F)F)c1` [Cpd 22, N-(5-chloro-6-(2H-1,2,3-triazol-2-yl)pyridin-3-yl)-1-(4-methylpyridin-2-yl)-5-(trifluoromethyl)-1H-pyrazole-4-carboxamide], the IC50 came out at 724 nM in assay [1]; 490 nM in assay [2] (OCI-Ly3, 96 h); 437 nM in assay [3] (TMD8, 24 h); 724 nM in assay [4] (TMD8, 24 h).
Consider `Cc1ccc(-n2ncc(C(=O)Nc3cnc(-n4nccn4)c(Cl)c3)c2C(F)(F)F)nc1` [Cpd 23, N-(5-chloro-6-(2H-1,2,3-triazol-2-yl)pyridin-3-yl)-1-(5-methylpyridin-2-yl)-5-(trifluoromethyl)-1H-pyrazole-4-carboxamide], for which the IC50 in assay [1] came to 933 nM; in assay [2] (OCI-Ly3, 96 h), 479 nM; in assay [3] (TMD8, 24 h) it was 891 nM; in assay [4] (TMD8, 24 h) it was 1070 nM.
For the compound `Cc1ccc(-n2ncc(C(=O)Nc3cnc(-n4nccn4)c(Cl)c3)c2C(F)(F)F)cc1` [Cpd 27, N-(5-chloro-6-(2H-1,2,3-triazol-2-yl)pyridin-3-yl)-1-(p-tolyl)-5-(trifluoromethyl)-1H-pyrazole-4-carboxamide], the IC50 in assay [1] was 851 nM; in assay [2] (setting [7]) it was 3890 nM; in assay [3] (setting [8]) it was 1200 nM; in assay [4] (setting [8]), 1380 nM.
As to `N#Cc1cc(NC(=O)c2cnn(-c3nccc(N)c3Cl)c2C(F)(F)F)cnc1-n1nccn1` [Cpd 120, 1-(4-amino-3-chloropyridin-2-yl)-N-(5-cyano-6-(2H-1,2,3-triazol-2-yl)pyridin-3-yl)-5-(trifluoromethyl)-1H-pyrazole-4-carboxamide], the IC50 is 794 nM in assay [5]; 126 nM in assay [1]; 741 nM in assay [6]; 1100 nM in assay [3] (setting [8]); 1350 nM in assay [4] (setting [8]).
Regarding `CN1CCc2c1cccc2-n1ncc(C(=O)Nc2cnc(-n3nccn3)c(C#N)c2)c1C(F)(F)F` [Cpd 128, N-(5-cyano-6-(2H-1,2,3-triazol-2-yl)pyridin-3-yl)-1-(1-methylindolin-4-yl)-5-(trifluoromethyl)-1H-pyrazole-4-carboxamide], the IC50 in assay [1] is 229 nM; in assay [3] (setting [8]) it was 1020 nM; in assay [4] (setting [8]), 2240 nM.
As for `N#Cc1cc(NC(=O)c2cnn(-c3cccc4c3CCN4)c2C(F)(F)F)cnc1-n1nccn1` [Cpd 130, N-(5-cyano-6-(2H-1,2,3-triazol-2-yl)pyridin-3-yl)-1-(indolin-4-yl)-5-(trifluoromethyl)-1H-pyrazole-4-carboxamide], the IC50 worked out at 234 nM in assay [1], 437 nM in assay [3] (setting [8]) and 245 nM in assay [4] (setting [8]).
